In ChEMBL document CHEMBL1123687, “A new thienylpyrazoloquinoline: a potent and orally active inverse agonist to benzodiazepine receptors” (J Med Chem, 1987) one finds ED50 and Ki data, which are given here for six compounds.

In general, ED50 refers to the dose at which the effect has come halfway, by size or by number of responders. Lower therefore signals an effect at a small dose. As usually defined, the Ki is a dissociation constant, usually derived from enzyme kinetics or from competition with a known ligand.

Test [1] is filed under the species Mus musculus. Nature of the test: animal or person. To be noted: po.
In test [2] the test system is Mus musculus. Briefly: Ability to inhibit pentylenetetrazole (PTZ) induced convulsions n mice after peroral administration at 125 mg/Kg; Range is between (2.70-7.09). Format: functional. To be noted: po.
For test [3], the target named is GABA-A receptor; anion channel. Nature of the test: Displacement of [3H]-diazepam from GABA-A benzodiazepine receptor of rat cerebral cortex. Format: tissue-based. On the technique in general: In a radioligand displacement assay an active substance lowers the binding of a labelled ligand.
Test [4] concerns Mus musculus. Briefly: Ability to facilitate pentylenetetrazole (PTZ) induced convulsions n mice after peroral administration at 90 mg/Kg; Range is between (5.43-33.74). Format: functional. The note with it: po.
Test [5] deals with Mus musculus. Nature of the test: Ability to facilitate pentylenetetrazole (PTZ) induced convulsions n mice after intravenous administration at 90 mg/Kg; Range is between (0.09-0.50). The format is functional.
The subject of test [6] is Mus musculus. Nature of the test: Ability to facilitate pentylenetetrazole (PTZ) induced convulsions in mice after peroral administration at 50 mg/Kg. Format: functional. The note with it: po.
The subject of test [7] is Mus musculus. Nature of the test: Ability to inhibit pentylenetetrazole (PTZ) induced convulsions in mice after intravenously administration at 75 mg/Kg; Range is between (0.62-1.62). The note with it: iv. The format is functional.
The test system of test [8] is Mus musculus. Nature of the test: Ability to facilitate pentylenetetrazole (PTZ) induced convulsions in mice after intravenously administration at 90 mg/Kg; Range is between (0.27-0.71). Format: functional. The note with it: iv.
The test system of test [9] is Mus musculus. Briefly: Ability to inhibit pentylenetetrazole (PTZ) induced convulsions in mice after peroral administration at 75 mg/Kg; […]. Format: functional. The note with it: po.
Test [10] deals with Mus musculus. Nature of the test: Ability to inhibit pentylenetetrazole (PTZ) induced convulsions in mice after peroral administration at 90 mg/Kg. Format: functional. The note with it: po.
For test [11], the system named is Mus musculus. Nature of the test: Ability to inhibit pentylenetetrazole (PTZ) induced convulsions in mice after intravenous administration at 75 mg/Kg; Range is between (0.34-0.73). The format is functional.
The test system of test [12] is Mus musculus. Briefly: Ability to facilitate pentylenetetrazole (PTZ) induced convulsions in mice after intravenously administration at 90 mg/Kg; Range is between (0.24-0.40). To be noted: iv. Format: functional.

The structures appear in SMILES notation.

In test [1], `CN1C(=O)CN=C(c2ccccc2)c2cc(Cl)ccc21` [DIAZEPAM] showed a median effective dose (ED50) of 0.67 mg/kg.
`Cc1ccc(-n2[nH]c3c(cnc4ccccc43)c2=O)s1` showed an ED50 in test [2] of 4.59 mg/kg. In addition, the affinity in test [3] corresponds to a Ki of 0.32 nM.
In the case of `O=C1C2C=Nc3ccccc3C2=NN1c1ccccc1` (centres undefined) [CGS-8216], the values for the median effective dose (ED50) in test [4] and in test [5] were 12.8 mg/kg and 0.2 mg/kg, respectively.
Regarding `CCOC(=O)c1cc2c(cn1)[nH]c1ccccc12`, the ED50 in test [6] turned out to be 37.5 mg/kg; in [7] it was 1 mg/kg; in test [8], 0.46 mg/kg.
Take `Cc1cc(-n2[nH]c3c(cnc4ccccc43)c2=O)cs1`: the ED50 in [9] amounted to 1.67 mg/kg; in test [10] it was 0.92 mg/kg. The compound also had an inhibition constant Ki in [3] of 0.316 nM.
Compound `COC(=O)c1cc2c(cn1)[nH]c1ccccc12` [BETA-CCM] returned an inhibitory constant (Ki) in test [3] of 1.47 nM. The ED50 in test [11] turned out to be 0.49 mg/kg; in test [12], 0.29 mg/kg.
